Source: patent US5756491A, “Antiviral cobalt-organic compounds” (priority 1991, dated 1998)

Experiments:
HSV-1 McKrae Strain [1] = assay: Direct virucidal efficacy against HSV-1 on HFF monolayers; type: cell-based; details: for effective virucidal concentration IC50 / effective virucidal concentration IC90: HSV-1
HFF cells [2] = assay: Cell proliferation assay; type: cell-based, human; details: rapidly growing cells
Experimental: Twenty-four hours prior to assay, HFF cells are seeded in 6-well plates at a concentration of 2.5×10^4 cells per well in MEM containing 10% FBS. On the day of the assay, drugs are diluted serially in MEM containing 10% FBS at increments of 1:5 covering a range from 100 μg/ml to 0.03 μg/ml. […] The media from the wells is then aspirated and 2 ml of each drug concentration is then added to each well. The cells are then incubated in a Co2 incubator at 37° C. for 72 h. At the end of this time, the media-drug solution is removed and the cells washed. […] The cell-media mixture is then pipetted up and down vigorously to break up the cell suspension and 0.2 ml of the mixture is added to 9.8 ml of Isoton III and counted using a Coulter Counter. Each sample is counted three times with three replicate wells per sample.

HSV-1 McKrae Strain [3] = assay: Intracellular antiviral activity against HSV-1 in HFF monolayers; type: cell-based; details: for antiviral efficacy (HSV-1 titer): Experiment 7 (Table 18), 24 h PI
Experimental: HSV-1 McKrae Strain was diluted to a final concentration of 10^5 PFU/ml in minimal essential medium (MEM). Hereinafter, this dilution is referred to as the HSV-1 Suspension for convenience.
With sufficient stirring, all the compounds completely dissolved.
HFF cell monolayers were inoculated with the HSV-Suspension prepared as above by absorption for thirty minutes at 37° C. After absorption of the virus, the inoculum was aspirated from the cell monolayers and the HSV-1 infected monolayers were rehydrated with medium containing the appropriate concentration of the solution of the compound by adding 500 microliters of each compound concentration to triplicate HSV-1 infected monolayers. All monolayers were incubated at 37° C. The developing HSV-1 cytopathology was monitored daily for two days by inverted light microscopy and titers were calculated by multiple […] analysis. For the intracellular anti-viral activity, "cell monolayer controls" were obtained using sham inoculated non-treated HFF cell monolayers along with the drug treated monolayers. "Positive controls" were obtained by using HSV-1 inoculated non-CTC compound treated HFF monolayers.

VZV = assay: In vitro assay with VZV on HFF monolayers; type: cell-based; details: for virucidal efficacy (VZV titer): Table 20, 7 days PI
Experimental: VZV was grown to a CPE level in vitro assays with VZV of 3-4+ on HFF cell monolayers. The VZV was scraped from the flask, centrifuged and the cell pellet was resuspended in 10 ml of complete medium. One hundred to 200 μl of the VZV cell associated inoculum was inoculated onto confluent HFF cell monolayers by absorption for 60 minutes at 37° C. After absorption of the virus, the inoculum was aspirated from the cell monolayers.
The VZV-infected monolayers were rehydrated with medium containing the appropriate concentrations of compounds to be tested. All monolayers were incubated at 37° C. Development of VZV cytopathology was monitored daily for 7 days by inverted light microscopy. Titers were calculated by multiple regression analysis.
Sham-inoculated, non-treated HFF cell monolayers were included among with the drug-treated monolayers as cell monolayer controls.
VZV inoculated, non-treated HFF monolayers were included as positive controls.

HFF cells [4] = assay: Neutral red uptake toxicity; type: cell-based, human; details: stationary cells

Structure (SMILES): CC([O-])=CC(C)=NCCN=C(C)C=C(C)[O-].Cc1ncc[nH]1.Cc1ncc[nH]1.[Br-].[Co+3] [Compound 96]
- virucidal efficacy (HSV-1 titer) (HSV-1 McKrae Strain [1]; Experiment 2 (Table 5), 24 h PI, 0.001 mg/ml): 10^4 PFU/ml
- virucidal efficacy (HSV-1 titer) (HSV-1 McKrae Strain [1]; Experiment 2 (Table 5), 24 h PI, 1 mg/ml): 0 PFU/ml
- virucidal efficacy (HSV-1 titer) (HSV-1 McKrae Strain [1]; Experiment 2 (Table 5), 48 h PI, 0.01 mg/ml): 10^6 PFU/ml
- virucidal efficacy (HSV-1 titer) (HSV-1 McKrae Strain [1]; Experiment 2 (Table 5), 48 h PI, 1 mg/ml): 0 PFU/ml
- effective virucidal concentration IC50 (HSV-1 McKrae Strain [1]; Experiment 2 (Table 6)): 100 µg/mL
- virucidal efficacy (HSV-1 titer) (HSV-1 McKrae Strain [1]; Experiment 3 (Table 8), 24 h PI, 0.001 mg/ml): 10^5 PFU/ml
- virucidal efficacy (HSV-1 titer) (HSV-1 McKrae Strain [1]; Experiment 3 (Table 8), 24 h PI, 1 mg/ml): 0 PFU/ml
- virucidal efficacy (HSV-1 titer) (HSV-1 McKrae Strain [1]; Experiment 3 (Table 8), 48 h PI, 1 mg/ml): 10^5 PFU/ml
- virucidal efficacy (HSV-1 titer) (HSV-1 McKrae Strain [1]; Experiment 4 (Table 9), 24 h PI, Run 1, 5 mg/ml): 0 PFU/ml
- virucidal efficacy (HSV-1 titer) (HSV-1 McKrae Strain [1]; Experiment 4 (Table 9), 24 h PI, Run 2, 0.01 mg/ml): 10^4 PFU/ml
- virucidal efficacy (HSV-1 titer) (HSV-1 McKrae Strain [1]; Experiment 4 (Table 9), 24 h PI, Run 2, 0.1 mg/ml): 10^2 PFU/ml
- virucidal efficacy (HSV-1 titer) (HSV-1 McKrae Strain [1]; Experiment 4 (Table 9), 24 h PI, Run 2, 1 mg/ml): 0 PFU/ml
- virucidal efficacy (HSV-1 titer) (HSV-1 McKrae Strain [1]; Experiment 4 (Table 9), 24 h PI, Run 2, 5 mg/ml): 0 PFU/ml
- effective virucidal concentration IC90 (HSV-1 McKrae Strain [1]; Experiment 4 (Table 11)): > 1000 µg/mL
- virucidal efficacy (HSV-1 titer) (HSV-1 McKrae Strain [1]; Experiment 5 (Table 12), 24 h PI, Run 1, 0.0001 mg/ml): 10^5 PFU/ml
- virucidal efficacy (HSV-1 titer) (HSV-1 McKrae Strain [1]; Experiment 5 (Table 12), 24 h PI, Run 1, 0.1 mg/ml): 10^2 PFU/ml
- virucidal efficacy (HSV-1 titer) (HSV-1 McKrae Strain [1]; Experiment 5 (Table 12), 24 h PI, Run 1, 1 mg/ml): 0 PFU/ml
- virucidal efficacy (HSV-1 titer) (HSV-1 McKrae Strain [1]; Experiment 5 (Table 12), 24 h PI, Run 1, 5 mg/ml): 0 PFU/ml
- virucidal efficacy (HSV-1 titer) (HSV-1 McKrae Strain [1]; Experiment 5 (Table 12), 24 h PI, Run 2, 0.0001 mg/ml): 10^3 PFU/ml
- virucidal efficacy (HSV-1 titer) (HSV-1 McKrae Strain [1]; Experiment 5 (Table 12), 24 h PI, Run 2, 0.001 mg/ml): 10^3 PFU/ml
- virucidal efficacy (HSV-1 titer) (HSV-1 McKrae Strain [1]; Experiment 5 (Table 12), 24 h PI, Run 2, 0.01 mg/ml): 10^3 PFU/ml
- virucidal efficacy (HSV-1 titer) (HSV-1 McKrae Strain [1]; Experiment 5 (Table 12), 24 h PI, Run 2, 0.1 mg/ml): 0 PFU/ml
- virucidal efficacy (HSV-1 titer) (HSV-1 McKrae Strain [1]; Experiment 5 (Table 12), 24 h PI, Run 2, 1 mg/ml): 0 PFU/ml
- virucidal efficacy (HSV-1 titer) (HSV-1 McKrae Strain [1]; Experiment 5 (Table 12), 24 h PI, Run 2, 5 mg/ml): 0 PFU/ml
- effective virucidal concentration IC50 (HSV-1 McKrae Strain [1]; Experiment 5 (Table 14)): 100 to 1000 µg/mL
- effective virucidal concentration IC90 (HSV-1 McKrae Strain [1]; Experiment 5 (Table 14)): > 1000 µg/mL
- virucidal efficacy (HSV-1 titer) (HSV-1 McKrae Strain [1]; Experiment 6 (Table 16), 24 h PI, 0.5 mg/ml): 0 PFU/ml
- virucidal efficacy (HSV-1 titer) (HSV-1 McKrae Strain [1]; Experiment 6 (Table 16), 24 h PI, 1 mg/ml): 0 PFU/ml
- virucidal efficacy (HSV-1 titer) (HSV-1 McKrae Strain [1]; Experiment 6 (Table 16), 24 h PI, 2 mg/ml): 0 PFU/ml
- virucidal efficacy (HSV-1 titer) (HSV-1 McKrae Strain [1]; Experiment 6 (Table 16), 24 h PI, 5 mg/ml): 0 PFU/ml
- effective virucidal concentration IC50 (HSV-1 McKrae Strain [1]; Experiment 6 (Table 17)): 100 µg/mL
- efficacy in virucidal assay (comment) (HSV-1 McKrae Strain [1]; Experiment 6 comment, reduction in toxicity resulted in it): reduction in efficacy
- toxicity IC50, cell proliferation (HFF cells [2]): 21.0 MCG/ML
- antiviral efficacy (HSV-1 titer) (HSV-1 McKrae Strain [3]; 0.1 mg/ml): 10^2 PFU/ml
- antiviral efficacy (HSV-1 titer) (HSV-1 McKrae Strain [3]; 2 mg/ml): 0 PFU/ml
- antiviral efficacy (HSV-1 titer) (HSV-1 McKrae Strain [3]; 5 mg/ml): 0 PFU/ml
- effective virucidal concentration IC50 (HSV-1 McKrae Strain [3]; Experiment 7 (Table 19), HSV-1): 500 to 1000 µg/mL
- virucidal efficacy (VZV titer) (VZV; 0.001 mg/ml): 10^4 PFU/ml
- virucidal efficacy (VZV titer) (VZV; 0.01 mg/ml): 10^2 PFU/ml
- virucidal efficacy (VZV titer) (VZV; 0.1 mg/ml, toxicity observation questionable): T?
- virucidal efficacy (VZV titer) (VZV; 2 mg/ml): 0 PFU/ml
- virucidal efficacy (VZV titer) (VZV; 5 mg/ml): 0 PFU/ml
- effective virucidal concentration IC50 (VZV; Table 21, VZV): 10 µg/mL
- toxicity IC50, neutral red uptake (HFF cells [4]): 22.0 MCG/ML
